Holding throughout (assay): Kinase panel profiling at 1 µmol/L (mobility shift assay, Carna)
Holding throughout (type): biochemical
Common to all, as to conditions: 1 µmol/L of BTK inhibitor

The target in one assay is T1, ROS (Homo sapiens, UniProt P08922).
T1 construct: purchased Carna Biosciences

Another assay has as its target T2, NEK7 (Homo sapiens, UniProt Q8TDX7).
T2 construct: purchased Carna Biosciences

Another assay concerns the target T3, PGK (Homo sapiens, UniProt Q13976).
T3 construct: purchased Carna Biosciences
T3 sequence (Q13976 1-671): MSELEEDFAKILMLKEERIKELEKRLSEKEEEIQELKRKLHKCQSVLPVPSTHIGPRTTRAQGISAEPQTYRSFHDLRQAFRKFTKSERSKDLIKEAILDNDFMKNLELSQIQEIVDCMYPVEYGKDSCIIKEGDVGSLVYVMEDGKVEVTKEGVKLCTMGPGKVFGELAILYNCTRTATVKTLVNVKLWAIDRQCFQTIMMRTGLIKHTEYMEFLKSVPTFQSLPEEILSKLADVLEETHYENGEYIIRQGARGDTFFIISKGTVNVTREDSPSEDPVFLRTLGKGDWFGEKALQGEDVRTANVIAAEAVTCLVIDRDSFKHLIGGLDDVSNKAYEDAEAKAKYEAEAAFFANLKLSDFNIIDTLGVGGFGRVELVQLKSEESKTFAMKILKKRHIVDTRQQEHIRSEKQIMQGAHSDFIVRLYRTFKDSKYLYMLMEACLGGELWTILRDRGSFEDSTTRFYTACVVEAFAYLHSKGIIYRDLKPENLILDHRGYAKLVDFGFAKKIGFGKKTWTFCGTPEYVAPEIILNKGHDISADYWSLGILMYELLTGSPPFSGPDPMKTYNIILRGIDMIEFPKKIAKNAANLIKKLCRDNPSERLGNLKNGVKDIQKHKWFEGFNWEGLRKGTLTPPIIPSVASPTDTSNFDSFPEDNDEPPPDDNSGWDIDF

In a further assay the target is T4, CK1γ2 (Homo sapiens, UniProt P78368).
T4 construct: purchased Carna Biosciences
T4 sequence (P78368 whole entry): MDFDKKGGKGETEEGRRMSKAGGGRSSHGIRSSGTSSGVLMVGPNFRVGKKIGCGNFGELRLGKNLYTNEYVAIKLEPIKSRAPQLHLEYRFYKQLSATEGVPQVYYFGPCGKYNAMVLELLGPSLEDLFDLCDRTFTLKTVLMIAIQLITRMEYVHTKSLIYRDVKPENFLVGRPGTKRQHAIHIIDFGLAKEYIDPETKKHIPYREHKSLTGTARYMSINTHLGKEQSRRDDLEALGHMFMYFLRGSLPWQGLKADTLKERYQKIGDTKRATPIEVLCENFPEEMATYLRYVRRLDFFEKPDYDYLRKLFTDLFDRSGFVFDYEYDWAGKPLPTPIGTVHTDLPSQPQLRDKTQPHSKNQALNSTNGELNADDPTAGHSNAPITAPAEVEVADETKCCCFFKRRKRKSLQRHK

The next assay has as its target T5, PKCγ (Homo sapiens, UniProt P05129).
T5 construct: purchased Carna Biosciences

Another assay concerns the target T6, BRSK1 (Homo sapiens, UniProt Q8TDC3).
T6 construct: purchased Carna Biosciences
T6 sequence (Q8TDC3 1-778): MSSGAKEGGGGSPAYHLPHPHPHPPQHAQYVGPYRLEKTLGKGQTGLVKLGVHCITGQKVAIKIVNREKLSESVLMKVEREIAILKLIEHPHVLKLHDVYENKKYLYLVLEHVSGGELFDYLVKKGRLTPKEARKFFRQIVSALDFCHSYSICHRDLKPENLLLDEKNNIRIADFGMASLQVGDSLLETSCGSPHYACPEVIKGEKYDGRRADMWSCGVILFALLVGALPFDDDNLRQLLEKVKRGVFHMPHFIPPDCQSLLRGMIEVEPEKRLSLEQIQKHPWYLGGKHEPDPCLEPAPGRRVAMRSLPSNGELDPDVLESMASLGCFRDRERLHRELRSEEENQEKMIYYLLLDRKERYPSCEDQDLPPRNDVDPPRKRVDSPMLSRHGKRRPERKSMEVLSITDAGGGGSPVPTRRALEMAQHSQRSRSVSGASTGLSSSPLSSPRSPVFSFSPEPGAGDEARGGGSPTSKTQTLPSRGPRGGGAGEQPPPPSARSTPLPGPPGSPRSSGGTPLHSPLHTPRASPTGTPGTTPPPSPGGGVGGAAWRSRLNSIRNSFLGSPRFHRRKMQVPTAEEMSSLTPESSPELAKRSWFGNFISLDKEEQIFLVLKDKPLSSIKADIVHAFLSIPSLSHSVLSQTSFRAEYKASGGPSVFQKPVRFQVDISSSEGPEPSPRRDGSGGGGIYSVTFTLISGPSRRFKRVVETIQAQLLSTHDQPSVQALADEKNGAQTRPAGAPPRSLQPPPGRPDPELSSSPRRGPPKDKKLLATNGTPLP

A further assay has as its target T7, PAK4 (Homo sapiens, UniProt O96013).
T7 construct: purchased Carna Biosciences

The target of a further assay is T8, FMS (Homo sapiens, UniProt P07333).
T8 construct: purchased Carna Biosciences
T8 sequence (P07333 20-972): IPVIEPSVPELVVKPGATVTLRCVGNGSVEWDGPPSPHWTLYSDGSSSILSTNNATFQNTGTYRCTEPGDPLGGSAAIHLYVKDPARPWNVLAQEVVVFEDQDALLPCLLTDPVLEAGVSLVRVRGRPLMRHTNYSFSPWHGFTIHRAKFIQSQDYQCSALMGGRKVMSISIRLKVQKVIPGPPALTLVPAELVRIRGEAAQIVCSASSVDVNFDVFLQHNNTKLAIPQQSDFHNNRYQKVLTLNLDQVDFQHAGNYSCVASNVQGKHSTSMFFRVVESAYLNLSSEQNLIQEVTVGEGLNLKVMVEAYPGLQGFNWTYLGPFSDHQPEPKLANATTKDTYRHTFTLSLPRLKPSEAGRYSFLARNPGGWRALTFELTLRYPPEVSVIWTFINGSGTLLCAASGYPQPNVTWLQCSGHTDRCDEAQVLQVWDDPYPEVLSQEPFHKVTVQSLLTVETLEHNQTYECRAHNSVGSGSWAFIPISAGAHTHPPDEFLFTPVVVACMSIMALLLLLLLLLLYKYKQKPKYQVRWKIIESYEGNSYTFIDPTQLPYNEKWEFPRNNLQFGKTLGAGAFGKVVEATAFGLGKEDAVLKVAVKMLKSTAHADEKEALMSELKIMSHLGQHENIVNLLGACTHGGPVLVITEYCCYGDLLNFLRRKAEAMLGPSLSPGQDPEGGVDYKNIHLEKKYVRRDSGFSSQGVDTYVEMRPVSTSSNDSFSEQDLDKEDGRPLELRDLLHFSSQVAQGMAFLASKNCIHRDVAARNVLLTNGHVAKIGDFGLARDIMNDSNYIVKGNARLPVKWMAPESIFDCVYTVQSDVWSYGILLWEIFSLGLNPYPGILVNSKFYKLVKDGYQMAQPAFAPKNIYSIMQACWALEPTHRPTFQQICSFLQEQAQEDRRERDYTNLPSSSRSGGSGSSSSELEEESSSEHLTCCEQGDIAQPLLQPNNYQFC

The target of a further assay is T9, p70S6K (Homo sapiens, UniProt P23443).
T9 construct: purchased Carna Biosciences
T9 sequence (P23443 whole entry): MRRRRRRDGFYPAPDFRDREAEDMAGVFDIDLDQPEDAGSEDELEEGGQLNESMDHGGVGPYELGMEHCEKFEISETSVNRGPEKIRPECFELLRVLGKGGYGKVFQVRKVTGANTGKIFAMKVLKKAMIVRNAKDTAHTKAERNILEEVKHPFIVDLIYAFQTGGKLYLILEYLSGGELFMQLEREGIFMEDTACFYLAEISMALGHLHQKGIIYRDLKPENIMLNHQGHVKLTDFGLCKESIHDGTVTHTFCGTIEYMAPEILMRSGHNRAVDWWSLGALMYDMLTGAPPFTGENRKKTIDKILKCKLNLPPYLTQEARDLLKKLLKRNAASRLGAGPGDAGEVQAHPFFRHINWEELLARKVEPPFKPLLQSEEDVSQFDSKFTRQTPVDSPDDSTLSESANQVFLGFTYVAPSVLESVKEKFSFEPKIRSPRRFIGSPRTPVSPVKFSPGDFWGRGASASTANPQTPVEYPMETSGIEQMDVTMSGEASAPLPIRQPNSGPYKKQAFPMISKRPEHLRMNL

Another assay has as its target T10, SGK (Homo sapiens, UniProt O00141).
T10 construct: purchased Carna Biosciences
T10 sequence (O00141 1-431): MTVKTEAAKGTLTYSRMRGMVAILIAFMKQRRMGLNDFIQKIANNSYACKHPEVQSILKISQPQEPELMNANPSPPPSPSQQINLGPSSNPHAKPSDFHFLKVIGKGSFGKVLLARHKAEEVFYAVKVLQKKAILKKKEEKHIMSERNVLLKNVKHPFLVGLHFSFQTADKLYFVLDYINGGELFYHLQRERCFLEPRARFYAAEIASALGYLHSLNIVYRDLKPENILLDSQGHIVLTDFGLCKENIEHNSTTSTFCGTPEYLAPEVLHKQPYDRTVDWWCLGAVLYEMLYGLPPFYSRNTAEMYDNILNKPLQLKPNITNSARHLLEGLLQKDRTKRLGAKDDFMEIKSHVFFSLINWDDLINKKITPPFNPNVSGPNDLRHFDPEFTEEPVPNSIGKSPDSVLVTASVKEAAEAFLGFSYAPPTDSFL

The next assay addresses T11, CaMK1α (Homo sapiens, UniProt Q14012).
T11 construct: purchased Carna Biosciences

Another assay deals with T12, p38β (Homo sapiens, UniProt Q15759).
T12 construct: purchased Carna Biosciences
T12 sequence (Q15759 whole entry): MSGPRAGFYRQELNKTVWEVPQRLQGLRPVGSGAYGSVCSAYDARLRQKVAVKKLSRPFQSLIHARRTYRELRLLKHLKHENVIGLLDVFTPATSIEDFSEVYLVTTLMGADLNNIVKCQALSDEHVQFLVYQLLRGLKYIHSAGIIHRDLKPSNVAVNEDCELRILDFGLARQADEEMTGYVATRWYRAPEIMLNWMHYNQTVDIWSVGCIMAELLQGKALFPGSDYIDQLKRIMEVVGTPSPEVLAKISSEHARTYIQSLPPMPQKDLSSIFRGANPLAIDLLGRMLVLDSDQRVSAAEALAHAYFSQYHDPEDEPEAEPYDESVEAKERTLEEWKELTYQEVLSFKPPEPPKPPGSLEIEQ

For another assay, the target named is T13, FRK (Homo sapiens, UniProt P42685).
T13 construct: purchased Carna Biosciences
T13 sequence (P42685 whole entry): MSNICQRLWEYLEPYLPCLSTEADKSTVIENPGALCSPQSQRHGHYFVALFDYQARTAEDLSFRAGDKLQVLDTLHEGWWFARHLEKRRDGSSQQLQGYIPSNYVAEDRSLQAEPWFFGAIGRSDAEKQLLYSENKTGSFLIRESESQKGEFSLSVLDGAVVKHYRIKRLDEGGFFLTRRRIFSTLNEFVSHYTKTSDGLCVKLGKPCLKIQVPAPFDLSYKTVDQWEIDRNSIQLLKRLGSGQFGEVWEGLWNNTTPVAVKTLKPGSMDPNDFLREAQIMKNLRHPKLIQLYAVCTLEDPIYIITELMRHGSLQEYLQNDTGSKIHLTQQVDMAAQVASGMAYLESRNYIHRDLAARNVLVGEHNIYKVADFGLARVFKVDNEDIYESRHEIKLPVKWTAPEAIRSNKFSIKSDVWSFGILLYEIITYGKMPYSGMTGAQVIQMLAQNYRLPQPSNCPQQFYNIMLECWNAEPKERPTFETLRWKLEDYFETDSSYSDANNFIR

The next assay has as its target T14, p38γ (Homo sapiens, UniProt P53778).
T14 construct: purchased Carna Biosciences
T14 sequence (P53778 1-367): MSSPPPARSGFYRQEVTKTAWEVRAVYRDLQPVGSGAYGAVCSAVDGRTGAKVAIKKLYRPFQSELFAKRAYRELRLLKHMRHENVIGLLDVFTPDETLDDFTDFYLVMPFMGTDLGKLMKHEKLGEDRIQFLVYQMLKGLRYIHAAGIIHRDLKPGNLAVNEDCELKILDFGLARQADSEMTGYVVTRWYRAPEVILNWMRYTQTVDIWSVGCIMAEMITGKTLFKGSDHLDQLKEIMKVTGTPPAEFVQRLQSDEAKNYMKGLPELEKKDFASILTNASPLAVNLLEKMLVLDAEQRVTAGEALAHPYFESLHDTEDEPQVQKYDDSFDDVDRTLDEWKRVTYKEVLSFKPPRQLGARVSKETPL

T11 sequence (Q14012 whole entry): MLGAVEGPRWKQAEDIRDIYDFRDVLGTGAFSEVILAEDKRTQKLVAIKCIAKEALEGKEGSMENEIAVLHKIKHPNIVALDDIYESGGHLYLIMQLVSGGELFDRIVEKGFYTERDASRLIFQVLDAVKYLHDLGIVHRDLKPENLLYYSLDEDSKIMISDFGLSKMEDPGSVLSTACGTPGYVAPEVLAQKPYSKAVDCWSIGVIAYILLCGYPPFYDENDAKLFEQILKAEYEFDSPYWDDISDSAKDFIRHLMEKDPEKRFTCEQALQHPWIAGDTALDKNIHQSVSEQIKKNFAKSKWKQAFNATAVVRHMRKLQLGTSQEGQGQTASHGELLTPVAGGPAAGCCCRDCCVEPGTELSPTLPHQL
T7 sequence (O96013 whole entry): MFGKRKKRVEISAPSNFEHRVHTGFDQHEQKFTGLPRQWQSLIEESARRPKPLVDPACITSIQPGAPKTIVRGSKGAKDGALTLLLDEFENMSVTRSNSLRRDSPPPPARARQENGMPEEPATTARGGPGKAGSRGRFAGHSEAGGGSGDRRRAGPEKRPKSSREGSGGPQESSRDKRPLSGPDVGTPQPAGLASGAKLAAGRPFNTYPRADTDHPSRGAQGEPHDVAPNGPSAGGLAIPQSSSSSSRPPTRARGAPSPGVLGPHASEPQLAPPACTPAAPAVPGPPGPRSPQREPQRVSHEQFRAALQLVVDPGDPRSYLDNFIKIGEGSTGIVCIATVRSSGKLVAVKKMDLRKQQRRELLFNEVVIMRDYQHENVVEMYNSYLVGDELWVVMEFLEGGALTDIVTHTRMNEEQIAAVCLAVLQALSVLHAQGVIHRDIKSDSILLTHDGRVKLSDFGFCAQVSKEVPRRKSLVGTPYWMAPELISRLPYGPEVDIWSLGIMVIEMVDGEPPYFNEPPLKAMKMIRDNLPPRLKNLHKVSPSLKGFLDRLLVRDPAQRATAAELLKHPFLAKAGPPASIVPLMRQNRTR
T2 sequence (Q8TDX7 whole entry): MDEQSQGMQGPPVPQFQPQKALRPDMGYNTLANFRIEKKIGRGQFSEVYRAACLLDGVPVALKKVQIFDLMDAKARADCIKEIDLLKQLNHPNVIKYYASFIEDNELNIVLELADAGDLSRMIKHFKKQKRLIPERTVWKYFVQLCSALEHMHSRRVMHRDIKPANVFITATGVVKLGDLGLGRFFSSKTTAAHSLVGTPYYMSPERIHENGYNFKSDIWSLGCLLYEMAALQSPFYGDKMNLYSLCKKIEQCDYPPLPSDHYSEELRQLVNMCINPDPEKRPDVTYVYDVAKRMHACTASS

As to `CC#CC(=O)N1CCC[C@H]1c1nc(-c2ccc(C(=O)Nc3ccccn3)cc2)c2c(N)nccn12` [acalabrutinib], the “Percentage inhibition of kinase enzyme activity” value (“Percentage inhibition” below) at ROS was 1.79%; at NEK7 it was -10.68%; at PGK it was -3.70%; on CK1γ2 it was -7.07%; at PKCγ, -7.43%; on BRSK1, -1.79%. For the same compound, the “Percentage inhibition” value at PAK4 is on record as -1.65%; at FMS it was 7.76%; at p70S6K, -13.73%; at SGK, -5.11%; at CaMK1α, -4.29%; on p38β it was -3.08%. In addition, the “Percentage inhibition” value at FRK is on record as 47.48%; at p38γ, -1.74%.

Turning to `COc1ccc(F)cc1C(=O)NCc1ccc(-c2nn([C@@H](C)C(F)(F)F)c(N)c2C(N)=O)cc1` [pirtobrutinib], the “Percentage inhibition” value at ROS is 3.20%; on NEK7 it was -2.19%; at PGK, 0.94%; on CK1γ2 it was 1.27%; at PKCγ, 3.04%; at BRSK1, 3.44%. In addition, the “Percentage inhibition” value is 4.35% on PAK4; -8.86% at FMS; -0.48% at p70S6K; 3.55% on SGK; -9.87% on CaMK1α; 2.61% on p38β. Further, the “Percentage inhibition” value at FRK was 13.63%; at p38γ it was -2.05%.

Turning to `C=CC(=O)N1CCC[C@@H](n2nc(-c3ccc(Oc4ccccc4)cc3)c3c(N)ncnc32)C1` [ibrutinib], the “Percentage inhibition” value is 4.82% at ROS; 0.69% at NEK7; 1.89% at PGK; 1.01% on CK1γ2; 0.80% at PKCγ; -7.32% at BRSK1. Moreover, the “Percentage inhibition” value is 10.65% at PAK4; 18.52% on FMS; 19.28% on p70S6K; -21.37% on SGK; 13.82% at CaMK1α; 9.06% on p38β. Besides, the “Percentage inhibition” value on FRK stood at 99.53%; on p38γ it was 3.51%.

For the compound `O=C(c1ccc(Oc2ccccc2)cc1Cl)c1c[nH]c2ncnc(N[C@@H]3CC[C@@H](CO)OC3)c12` [nemtabrutinib], the “Percentage inhibition” value is 60.67% at ROS; 3.06% at NEK7; -2.11% on PGK; -5.17% at CK1γ2; 0.06% at PKCγ; 12.83% at BRSK1. Moreover, the “Percentage inhibition” value is given as 53.09% at PAK4; 101.94% on FMS; 4.51% at p70S6K; 1.16% on SGK; 11.41% on CaMK1α; 12.08% at p38β. In addition, the “Percentage inhibition” value on FRK is reported as 98.79%; at p38γ it was 0.72%.

Turning to `C=CC(=O)N1CCC([C@@H]2CCNc3c(C(N)=O)c(-c4ccc(Oc5ccccc5)cc4)nn32)CC1` [zanubrutinib], the figures for the “Percentage inhibition” value at FMS, on SGK and on FRK were 82.03%, -0.67% and 31.32%, respectively.
